The text below walks through data of PMC12794186, “Covalent Alkynylpyridopyrimidinones Targeting Cysteine 775 of the Epidermal Growth Factor Receptor Overcome Resistance to Current Therapies” (Journal of Medicinal Chemistry, 2025).

Read-outs that look alike come from different tables or passages of the source.

For experiment [1], the system named is EGFR phosphorylation (Tyr1068) in A431 (WT-EGFR) cells. The experiment can be described thus: HTRF cellular EGFR phosphorylation. The experiment is classed as cell-based. As to conditions: Homo sapiens, A-431, mean ± SD of 4 experiments, read-out: A431 pEGFR IC50. Here is the method:
Cells were plated at 20,000 cells per well in 96-well plates and placed at 37 °C with 5% CO2. Compounds were reconstituted in DMSO. Once adhered (after 24 h), cells were treated with compounds at a final concentration of 0.1% DMSO in media. Compounds were added to duplicate wells and incubated 37 °C for 3 h with 5% CO2. For A431 cells 0.5 h before the end of incubation; 100 ng/mL of EGF (Thermo Fisher, Cat. No. PHG0311) was added to all compound-treated cells as well as control. Compound and media were removed from the cells, and then 50 μL of HTRF lysis buffer was added (lysis buffer was diluted from 4× stock to 1× in deionized (DI) water, with 1% blocking agent also added). Cells were lysed on a plate shaker (2000 rpm) for 30 min at room temperature. pEGFR expression was assessed using the Human Phospho-EGFR (Tyr1068) cellular detection kit (Revvity, Cat. No. 64EG1PEH). Total EGFR expression was monitored using the Human Total EGFR cellular detection kit (Revvity, Cat. No. 64NG1PEH) as per the manufacturer’s instructions. Fluorescence emission was read at two different wavelengths (665 and 620 nm) on a PHERAstar microplate reader (BMG Labtech). Results were calculated as the ratio of pEGFR/total EGFR and then the percentage of 0 μM control.

For another experiment, the system named is FLT3. Briefly: Kinase selectivity panel. Format: binding. The note with it: 1.0 µM.
Another experiment concerns BaF3 EGFR WT cells. The experiment can be described thus: Ba/F3 growth inhibition (CellTiter Glo). Format: cell-based, Murine. The note with it: Mus musculus, 72 h. The method, then: (§1) Growth inhibition in Ba/F3 cell lines were assessed in a 384-well format by CellTiter Glo assay (Promega) using the manufacturer’s recommended protocol. Cells were seeded on the day of compound addition and assessed following 72 h incubation including a vehicle only control. Ba/F3 EGFR-WT cells required supplementation with EGF (100 ng/mL, ThermoFisher, Cat No. PHG0311).
In general terms: Cellular ATP, detected with luciferase, serves as a proxy for viable cell number.

Experiment [2] relates to BaF3 EGFR del19/T790M cells. Briefly: Ba/F3 growth inhibition (CellTiter Glo). Format: cell-based, Murine. As to conditions: Mus musculus, BaF3, absence of IL-3, 72 h, read-out: dT: del19/T790M GI50. Here is the method:
as §1

Experiment [3] concerns BaF3 EGFR L858R/T790M cells. Briefly: Ba/F3 growth inhibition (CellTiter Glo). The note with it: BaF3, absence of IL-3, 72 h, read-out: LT: L858R/T790M GI50. The experiment is classed as cell-based, Murine. The method, then:
as §1

The test system of experiment [4] is BaF3 EGFR L858R/T790M/C775A cells. Briefly: Ba/F3 growth inhibition (CellTiter Glo). Format: cell-based, Murine. As to conditions: Mus musculus, BaF3, absence of IL-3, 72 h, read-out: LTC2: L858R/T790M/C775A GI50. Here is the method: as §1
The test system of experiment [5] is pERK1/2 phosphorylation in H1975 (L858R, T790M) cells. Briefly: Western blot of ERK1/2 phosphorylation. The experiment is classed as cell-based. As to conditions: H1975, 4 h exposure. The method, then:
Cells, seeded on the previous day, were incubated with test compound at the indicated concentrations or DMSO (0.1%) for 4 h. Cells were lysed in Phosphosafe extraction buffer (Merck, Cat. No. 71296) combined with cOmplete Protease Inhibitor Cocktail (Merck, Cat. No. 4693116001) prepared as per the manufacturer’s instructions. Protein concentrations were determined using BCA Protein Assay Kit (Thermo Scientific, Cat. No. 23227). Preparation of lysates and Western blotting was performed twice as independent experiments.
Samples were prepared by diluting lysates in PBS to the desired concentration and before adding 4X XT sample buffer. Samples were then denatured at 98 °C for 5 min and then centrifuged to remove the residue. […] The quality of transfer was assessed using Ponceau S Stain (Sigma-Aldrich Cat. No. p7170).
Primary antibodies raised to EGFR (CST Cat. No. 4267), phospho-EGFR (CST Cat. No. 3777), phospho-p44/42 MAPK(ERK1/2) (CST Cat. No. 9101S) and p44/42 MAPK (CST Cat. No. 9102S) were diluted (1:1000) in 5% BSA w/v. Loading control antibodies were prepared in 5% milk w/v with 1× TBS/T (0.1 v/v) solution at a determined optimum concentration.
Proteins were detected using Clarity ECL substrate (Bio-Rad) and imaged using a Licor Odyssey FC.
A general note: In western blotting, separated proteins are transferred to a membrane and probed.

In another experiment the target is mLTC-EGFR (Homo sapiens, UniProt P00533, C797S/L858R/T790M). Briefly: Intact protein mass spectrometry, covalent adduct formation. The experiment is classed as binding. As to conditions: intact protein mass spectrometry.
In the next experiment the target is T1, wild-type EGFR (WT-EGFR) (Homo sapiens, UniProt P00533).
T1 construct: made in house; host or cells: SF9 insect cells (MultiBac)
Briefly: TR-FRET fluorescent probe displacement assay. The experiment is classed as binding. As to conditions: TR-FRET, n > 3. The method, then:
Compounds (dissolved to 100 mM in DMSO) were dispensed into black low volume 384 well assay plates (Corning) over a final concentration range of 100,000, 30,000, 10,000, 3000, 1000, 300, 100, 30, 10, and 3 nM using an Echo 550 (Labcyte). Positive control compound and DMSO as a negative control were dispensed into the first and last well, respectively. Each well was backfilled with DMSO to a final volume of 200 nL, resulting in final assay DMSO concentrations of 1%. […] The data were analyzed using Graphpad Prism/Dotmatics Studies Software. Assays conducted in technical replicate and repeated as a biological duplicate.
On the technique in general: Time-resolved FRET reads energy transfer from a long-lived donor to a nearby acceptor.

Another experiment has as its system panel of 394 kinases. The experiment can be described thus: Kinase selectivity panel, summary. As to conditions: 1.0 μM. Format: binding.
Experiment [6] has as its system EGFR phosphorylation (Tyr1068) in H1975 (L858R, T790M) cells. Briefly: Western blot of EGFR phosphorylation. As to conditions: H1975, 4 h exposure. The experiment is classed as cell-based.
Method: Cells, seeded on the previous day, were incubated with test compound at the indicated concentrations or DMSO (0.1%) for 4 h. […] Preparation of lysates and Western blotting was performed twice as independent experiments.

In the case of `C#Cc1cc(=O)n(-c2ccccc2)c2nc(Nc3ccc(N(C)CCN(C)C)cc3)ncc12` [Compound 7, 2-((4-((2-(Dimethylamino)ethyl)(methyl)amino)phenyl)amino)-5-ethynyl-8-phenylpyrido[2,3-d]pyrimidin-7(8H)-one], the IC50 is 4.1 µM in experiment [1], 0.2 µM on wild-type EGFR (WT-EGFR) (read-out: WT-EGFR IC50) and 0.2 µM on wild-type EGFR (WT-EGFR) (read-out: WT-EGFR pIC50 ± std dev (converted)). Besides, the “Mean (Percent Control)” value with FLT3 turned out to be 15 Percent Control. Besides, the GI50 with BaF3 EGFR WT cells was 1.1 µM; in [2] it was 0.049 ± 0.006 µM; in experiment [3], less than 0.1 µM; in [3] (Mus musculus, Ba/F3 EGFR, 72 h), 0.05 ± 0.0032 µM; in experiment [4], 1.5 µM. The “reduction in ERK1/2 phosphorylation (Western blot)” value in [5] is listed as “concomitant reduction in ERK1/2 phosphorylation”. The “covalent adduct formation, in words” value on mLTC-EGFR is listed as “formed only a single adduct”. For the same compound, the “number of kinases showing >75% inhibition” value with panel of 394 kinases is listed as 10. The “concentration eliciting dose-dependent reduction in EGFR phosphorylation (Western blot)” value in experiment [6] is listed as no less than 100 nM.
